# Data from patent publication US6737383B1, “Herbicidal oxadiazolidines” (priority 1999, dated 2004).
# Tests used:
# bedstraw = experiment: Test B pre/postemergence bedstraw; assay type: in vivo, Galium aparine
# Procedure, shortened: (§1)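 Response is a visual 0-to-10 score relative to untreated plants, where 0 means no effect and 10 means complete control, taken twelve to sixteen days after application. Treatments went onto soil at planting and onto foliage of 1- to 4-leaf plants, using a surfactant-containing non-phytotoxic solvent.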
# blackgrass = experiment: Test B pre/postemergence blackgrass; assay type: in vivo, Alopecurus myosuroides
# Procedure, shortened: as §1
# surinam grass = experiment: Test B pre/postemergence surinam grass; assay type: in vivo, Brachiaria decumbens
# Procedure, shortened: as §1
# cocklebur = experiment: Test B pre/postemergence cocklebur; assay type: in vivo, Xanthium strumarium
# Procedure, shortened: as §1
# corn = experiment: Test B pre/postemergence corn; assay type: in vivo, Zea mays
# Procedure, shortened: as §1
# crabgrass = experiment: Test B pre/postemergence crabgrass; assay type: in vivo, Digitaria sanguinalis
# Procedure, shortened: as §1
# giant foxtail = experiment: Test B pre/postemergence giant foxtail; assay type: in vivo, Setaria faberii
# Procedure, shortened: as §1
# pigweed = experiment: Test B pre/postemergence pigweed; assay type: in vivo, Amaranthus retroflexus
# Procedure, shortened: as §1
# soybean = experiment: Test B pre/postemergence soybean; assay type: in vivo, Glycine max
# Procedure, shortened: as §1
# sugar beet = experiment: Test B pre/postemergence sugar beet; assay type: in vivo, Beta vulgaris
# Procedure, shortened: as §1
# velvetleaf = experiment: Test B pre/postemergence velvetleaf; assay type: in vivo, Abutilon theophrasti
# Procedure, shortened: as §1
# wheat = experiment: Test B pre/postemergence wheat; assay type: in vivo, Triticum aestivum
# Procedure, shortened: as §1
# wild oat = experiment: Test B pre/postemergence wild oat; assay type: in vivo, Avena fatua
# Procedure, shortened: as §1
# purple nutsedge = experiment: Test B pre/postemergence purple nutsedge; assay type: in vivo, Cyperus rotundus
# Procedure, shortened: as §1
# rice = experiment: Test B flood test rice; assay type: in vivo, Oryza sativa
# Procedure, shortened: (§2)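 Plants were grown to the 2-leaf stage before treatment with test chemical, then held in a greenhouse for twelve to sixteen days. Injury was visually rated against untreated controls on a 0–10 scale, where 0 is no effect and 10 is complete control.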
# duck salad = experiment: Test B flood test duck salad; assay type: in vivo, Heteranthera limosa
# Procedure, shortened: as §2
# [1] = Postemergence, Rate 125 g/ha, scale 0 to 10, 0 is no effect, 10 is complete control
# [2] = Postemergence, Rate 250 g/ha, scale 0 to 10, 0 is no effect, 10 is complete control
# [3] = Postemergence, Rate 500 g/ha, scale of 0 to 10 where 0 is no effect and 10 is complete control
# [4] = Preemergence, Rate 62 g/ha, scale 0 to 10 (0 no effect, 10 complete control)
# [5] = Preemergence, Rate 125 g/ha, scale of 0 to 10 where 0 is no effect and 10 is complete control
# [6] = Preemergence, Rate 500 g/ha, scale 0 to 10, 0 is no effect, 10 is complete control
# [7] = Rate 62 g/ha, Postemergence, scale of 0 to 10 where 0 is no effect and 10 is complete control
# [8] = Preemergence, Rate 250 g/ha, scale of 0 to 10 where 0 is no effect and 10 is complete control
# [9] = Preemergence, Rate 250 g/ha, scale 0 to 10, 0 is no effect, 10 is complete control
# [10] = Rate 62 g/ha, flood test species, Pre-emergence, visual evaluation after twelve to sixteen days
# [11] = Rate 125 g/ha, under heading Pre-emergence, flood test species, visual evaluation after twelve to sixteen days
# [12] = Rate 250 g/ha, Pre-emergence, flood-test species, scale 0 to 10, 0 is no effect, 10 is complete control
# [13] = Rate 500 g/ha, Pre-emergence, flood test species, scale 0 to 10 (0 no effect, 10 complete control)
smiles,measurement,setting,value
CC1CC1Cn1c(=O)on(C(=O)N(c2ccc(F)cc2)C(C)C)c1=O (centres unmarked) [Compound 402],"Plant response rating, Bedstraw",bedstraw; [1],3
same,"Plant response rating, Bedstraw",bedstraw; [2],7
same,Bedstraw plant response rating,bedstraw; [3],8
same,"Plant response rating, Bedstraw",bedstraw; [4],2
same,"Plant response rating, Bedstraw",bedstraw; [5],3
same,Bedstraw plant response rating,bedstraw; [6],10
same,Bedstraw plant response rating,bedstraw; [7],3
same,Blackgrass plant response rating,blackgrass; [3],9
same,"Plant response rating, Blackgrass",blackgrass; [4],3
same,"Plant response rating, Blackgrass",blackgrass; [5],7
same,Blackgrass plant response rating,blackgrass; [8],9
same,Blackgrass plant response rating,blackgrass; [6],10
same,"Plant response rating, B. signalgrass",surinam grass; [1],2
same,"Plant response rating, B. signalgrass",surinam grass; [2],2
same,B. signalgrass plant response rating,surinam grass; [3],5
same,"Plant response rating, B. signalgrass",surinam grass; [4],0
same,"Plant response rating, B. signalgrass",surinam grass; [5],3
same,B. signalgrass plant response rating,surinam grass; [8],4
same,B. signalgrass plant response rating,"surinam grass; Preemergence, Rate 500 g/ha, scale of 0 to 10 where 0 is no effect and 10 is complete control",9
same,B. signalgrass plant response rating,surinam grass; [7],0
same,"Plant response rating, Cocklebur",cocklebur; [1],1
same,"Plant response rating, Cocklebur",cocklebur; [2],4
same,Cocklebur plant response rating,cocklebur; [3],5
same,"Plant response rating, Cocklebur",cocklebur; [4],0
same,"Plant response rating, Cocklebur",cocklebur; [5],0
same,Cocklebur plant response rating,cocklebur; [9],0
same,Cocklebur plant response rating,cocklebur; [6],0
same,Cocklebur plant response rating,cocklebur; [7],0
same,"Plant response rating, Corn",corn; [1],0
same,"Plant response rating, Corn",corn; [2],0
same,Corn plant response rating,corn; [3],0
same,"Plant response rating, Corn",corn; [4],0
same,"Plant response rating, Corn",corn; [5],0
same,Corn plant response rating,corn; [9],3
same,Corn plant response rating,corn; [6],9
same,Corn plant response rating,corn; [7],0
same,"Plant response rating, Crabgrass",crabgrass; [1],3
same,"Plant response rating, Crabgrass",crabgrass; [2],5
same,Crabgrass plant response rating,crabgrass; [3],9
same,"Plant response rating, Crabgrass",crabgrass; [4],9
same,"Plant response rating, Crabgrass",crabgrass; [5],9
same,Crabgrass plant response rating,crabgrass; [9],10
same,Crabgrass plant response rating,crabgrass; [6],10
same,Crabgrass plant response rating,crabgrass; [7],3
same,"Plant response rating, Giant foxtail",giant foxtail; [1],8
same,"Plant response rating, Giant foxtail",giant foxtail; [2],9
same,Giant foxtail plant response rating,giant foxtail; [3],9
same,"Plant response rating, Giant foxtail",giant foxtail; [4],10
same,"Plant response rating, Giant foxtail",giant foxtail; [5],10
same,Giant foxtail plant response rating,giant foxtail; [9],10
same,Giant foxtail plant response rating,giant foxtail; [6],10
same,Giant foxtail plant response rating,giant foxtail; [7],8
same,"Plant response rating, Redroot pigweed",pigweed; [2],5
same,Redroot pigweed plant response rating,pigweed; [3],7
same,"Plant response rating, Redroot pigweed",pigweed; [4],0
same,"Plant response rating, Redroot pigweed",pigweed; [5],2
same,Redroot pigweed plant response rating,pigweed; [9],4
same,Redroot pigweed plant response rating,pigweed; [6],10
same,Redroot pigweed plant response rating,pigweed; [7],2
same,"Plant response rating, Soybean",soybean; [2],6
same,Soybean plant response rating,soybean; [3],8
same,"Plant response rating, Soybean",soybean; [4],0
same,"Plant response rating, Soybean",soybean; [5],0
same,Soybean plant response rating,soybean; [9],0
same,Soybean plant response rating,soybean; [6],1
same,Soybean plant response rating,soybean; [7],4
same,"Plant response rating, Sugarbeets",sugar beet; [2],2
same,Sugarbeets plant response rating,sugar beet; [3],2
same,"Plant response rating, Sugarbeets",sugar beet; [4],0
same,"Plant response rating, Sugarbeets",sugar beet; [5],0
same,Sugarbeets plant response rating,sugar beet; [9],3
same,Sugarbeets plant response rating,sugar beet; [6],8
same,Sugarbeets plant response rating,sugar beet; [7],1
same,"Plant response rating, Velvetleaf",velvetleaf; [2],4
same,Velvetleaf plant response rating,velvetleaf; [3],4
same,"Plant response rating, Velvetleaf",velvetleaf; [4],0
same,"Plant response rating, Velvetleaf",velvetleaf; [5],0
same,Velvetleaf plant response rating,velvetleaf; [9],3
same,Velvetleaf plant response rating,velvetleaf; [6],8
same,Velvetleaf plant response rating,velvetleaf; [7],0
same,Wheat plant response rating,wheat; [3],0
same,"Plant response rating, Wheat",wheat; [4],0
same,"Plant response rating, Wheat",wheat; [5],0
same,Wheat plant response rating,wheat; [9],3
same,Wheat plant response rating,wheat; [6],6
same,Wheat plant response rating,wheat; [7],0
same,Wild oats plant response rating,wild oat; [3],3
same,"Plant response rating, Wild oats",wild oat; [4],1
same,"Plant response rating, Wild oats",wild oat; [5],4
same,Wild oats plant response rating,wild oat; [9],8
same,Wild oats plant response rating,wild oat; [6],10
same,Wild oats plant response rating,wild oat; [7],0
same,"Plant response rating, Nutsedge",purple nutsedge; [2],0
same,Nutsedge plant response rating,purple nutsedge; [3],0
same,"Plant response rating, Nutsedge",purple nutsedge; [4],0
same,"Plant response rating, Nutsedge",purple nutsedge; [5],0
same,Nutsedge plant response rating,purple nutsedge; [9],0
same,Nutsedge plant response rating,purple nutsedge; [6],0
same,Nutsedge plant response rating,purple nutsedge; [7],0
same,"Plant response rating, Rice (0 to 10 scale, 0 is no effect, 10 is complete control)",rice; [10],1
same,"Rice plant response rating (0 to 10 scale, 0 is no effect, 10 is complete control)",rice; [11],1
same,Rice plant response rating,rice; [12],2
same,Rice plant response rating,rice; [13],2
same,"Plant response rating, Ducksalad (0 to 10 scale, 0 is no effect, 10 is complete control)",duck salad; [10],0
same,"Ducksalad plant response rating (0 to 10 scale, 0 is no effect, 10 is complete control)",duck salad; [11],0
same,Ducksalad plant response rating,duck salad; [12],0
same,Ducksalad plant response rating,duck salad; [13],0
